Source: publication PMC11079024, “Identification of a family of species-selective complex I inhibitors as potential anthelmintics” (Nature Communications, 2024)
Where two headings read alike, the source gives them in different places.

Legend:
[1] = molecular target: B. taurus (heart) complex I (Bos taurus, UniProt P03887+P17694+P42026); assay: biochemical; type: biochemical; details: for IC50: read-out: B. taurus Complex I IC50; for Log IC50 B. taurus complex I: log10 of IC50 in µM, B. taurus mitochondria; for activity at 0.0001 µM / activity at 0.0005 µM / activity at 0.001 µM / activity at 0.0025 µM / activity at 0.005 µM / activity at 0.013 µM / activity at 0.025 µM / activity at 0.063 µM / activity at 0.125 µM / activity at 0.313 µM / activity at 0.625 µM / activity at 1.5 µM / activity at 3 µM / activity at 15 µM / activity at 37.5 µM / activity at 75 µM: read-out: B. taurus mitochondrial complex I activity
Chain of B. taurus (heart) complex I (P03887 whole entry): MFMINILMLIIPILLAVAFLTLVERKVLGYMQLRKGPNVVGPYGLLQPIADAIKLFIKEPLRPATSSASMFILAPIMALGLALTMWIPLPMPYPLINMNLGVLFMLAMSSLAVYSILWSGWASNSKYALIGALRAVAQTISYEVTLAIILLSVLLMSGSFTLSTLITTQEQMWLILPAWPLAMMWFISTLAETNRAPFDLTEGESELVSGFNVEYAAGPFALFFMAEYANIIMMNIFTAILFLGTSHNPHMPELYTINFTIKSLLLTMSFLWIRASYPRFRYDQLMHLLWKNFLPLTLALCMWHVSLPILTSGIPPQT
Chain of B. taurus (heart) complex I (P17694 34-463): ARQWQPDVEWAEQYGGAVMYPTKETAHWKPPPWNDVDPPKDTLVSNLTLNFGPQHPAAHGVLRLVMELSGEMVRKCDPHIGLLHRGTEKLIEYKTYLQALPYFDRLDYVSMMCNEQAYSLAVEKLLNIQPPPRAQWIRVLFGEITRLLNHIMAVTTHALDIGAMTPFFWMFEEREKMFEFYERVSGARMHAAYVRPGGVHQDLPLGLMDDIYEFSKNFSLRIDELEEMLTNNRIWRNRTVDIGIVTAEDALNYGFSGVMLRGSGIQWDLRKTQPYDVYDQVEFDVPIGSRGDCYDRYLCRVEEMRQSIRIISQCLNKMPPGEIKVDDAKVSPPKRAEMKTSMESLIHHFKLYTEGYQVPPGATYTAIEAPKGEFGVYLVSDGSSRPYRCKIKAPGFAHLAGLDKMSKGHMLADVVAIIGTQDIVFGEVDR
Chain of B. taurus (heart) complex I (P42026 38-216): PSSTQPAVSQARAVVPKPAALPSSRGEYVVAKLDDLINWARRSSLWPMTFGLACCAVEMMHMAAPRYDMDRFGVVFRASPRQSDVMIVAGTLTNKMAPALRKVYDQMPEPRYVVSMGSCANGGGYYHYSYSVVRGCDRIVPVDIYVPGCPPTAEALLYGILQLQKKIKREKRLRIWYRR
In short: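 Complex I activity followed as DCIP reduction (600 nm, 30 s reads, 15 min) with 80 μM NADH and 60 μM decylubiquinone in 25 mM KPi pH 7.5 containing 2 μM antimycin A and 2 mM KCN. Freeze-thawed mouse or bovine heart mitochondria at 0.2 mg/mL; initial-rate percent of solvent control, single-point 100 μM or dose-response.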

[2] = molecular target: C. elegans (N2) complex I (NADH:ubiquinone oxidoreductase) (Caenorhabditis elegans, UniProt P24887+Q93873+Q94360); assay: biochemical; type: biochemical; details: for Log IC50 C. elegans complex I: log10 of IC50 in µM, C. elegans mitochondria; for activity at 0.0001 µM / activity at 0.0005 µM / activity at 0.001 µM / activity at 0.0025 µM / activity at 0.005 µM / activity at 0.013 µM / activity at 0.025 µM / activity at 0.063 µM / activity at 0.125 µM / activity at 0.313 µM / activity at 0.625 µM / activity at 1.5 µM / activity at 3 µM / activity at 15 µM / activity at 37.5 µM / activity at 75 µM: read-out: C. elegans mitochondrial complex I activity
Chain of C. elegans (N2) complex I (NADH:ubiquinone oxidoreductase) (Q94360 17-199): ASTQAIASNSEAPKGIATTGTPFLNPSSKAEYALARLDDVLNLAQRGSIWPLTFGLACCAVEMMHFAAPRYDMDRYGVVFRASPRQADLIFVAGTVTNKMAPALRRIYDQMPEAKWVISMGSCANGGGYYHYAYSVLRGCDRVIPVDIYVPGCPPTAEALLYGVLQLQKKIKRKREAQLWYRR
Chain of C. elegans (N2) complex I (NADH:ubiquinone oxidoreductase) (P24887 whole entry): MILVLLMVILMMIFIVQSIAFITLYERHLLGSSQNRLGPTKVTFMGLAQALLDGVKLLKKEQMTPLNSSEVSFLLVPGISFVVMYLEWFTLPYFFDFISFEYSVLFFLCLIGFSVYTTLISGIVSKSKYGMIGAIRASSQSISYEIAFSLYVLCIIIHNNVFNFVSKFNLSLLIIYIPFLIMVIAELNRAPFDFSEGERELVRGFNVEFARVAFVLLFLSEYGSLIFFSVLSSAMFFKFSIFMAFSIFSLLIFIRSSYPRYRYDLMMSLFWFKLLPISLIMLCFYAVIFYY
Chain of C. elegans (N2) complex I (NADH:ubiquinone oxidoreductase) (Q93873 31-482): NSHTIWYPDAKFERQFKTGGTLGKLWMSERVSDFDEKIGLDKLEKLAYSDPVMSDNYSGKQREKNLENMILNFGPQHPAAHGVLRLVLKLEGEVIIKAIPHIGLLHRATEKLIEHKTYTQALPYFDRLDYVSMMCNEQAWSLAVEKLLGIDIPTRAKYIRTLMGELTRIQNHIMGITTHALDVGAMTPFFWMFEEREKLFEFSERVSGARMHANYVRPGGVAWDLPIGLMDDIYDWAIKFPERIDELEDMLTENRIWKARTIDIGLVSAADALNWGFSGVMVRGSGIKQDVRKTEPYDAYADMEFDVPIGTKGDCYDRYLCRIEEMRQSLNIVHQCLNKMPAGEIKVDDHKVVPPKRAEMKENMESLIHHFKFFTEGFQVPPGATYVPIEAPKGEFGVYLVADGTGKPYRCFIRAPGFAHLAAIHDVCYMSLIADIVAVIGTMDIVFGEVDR
In short: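 Compounds were tested against freeze-thawed isolated mitochondria (0.2 mg/mL protein). NADH:decylubiquinone activity was monitored via DCIP absorbance at 600 nm, and the initial linear slope was normalised to solvent controls.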

[3] = B. taurus heart mitochondria, estimated from fitted dose-response curves
[4] = in vitro complex I dose response on C. elegans mitochondria, average of at least two biological replicates, fit in R (DRC), read-out: IC50 C. elegans complex I
[5] = wild-type C. elegans mitochondria, estimated from fitted dose-response curves, read-out: C. elegans Complex I IC50
[6] = wild-type C. elegans, mean of replicates, read-out: in vitro complex I activity relative to solvent control, Mean
[7] = wild-type C. elegans, single replicate, read-out: in vitro complex I activity relative to solvent control, individual replicate
[8] = wild-type (N2) mitochondria, read-out: C. elegans Complex I IC50

c1ccc(CCCCCCCCCCc2nc3ccccc3[nH]2)cc1 [STL442376]
IC50 [1, 3]: 3320 nM | Log IC50 B. taurus complex I [1]: 0.52 µM | IC50 [2, 4]: 2330 nM | Log IC50 C. elegans complex I [2]: 0.37 µM | IC50 [2, 5]: 2330 nM

CC(C)(C)c1ccc(CCOc2ncnc3ccccc23)cc1 [Fenazaquin, reference compound]
IC50 ([1]; heart mitochondria): 24 nM | remaining activity at 0.0001 µM ([2]; dose 0.0001 µM, wild-type C. elegans, mean of replicates, read-out: in vitro complex I activity relative to solvent control, Mean): 94.3% | remaining activity at 0.0005 µM ([2]; dose 0.0005 µM, wild-type C. elegans, mean of replicates, read-out: in vitro complex I activity relative to solvent control, Mean): 89.7% | remaining activity at 0.001 µM [2, 6]: 82.5% | remaining activity at 0.001 µM [2, 7]: 80.4% | remaining activity at 0.0025 µM [2, 6]: 63.3% | remaining activity at 0.0025 µM [2, 7]: 63.7% | remaining activity at 0.005 µM [2, 6]: 42.1% | remaining activity at 0.005 µM [2, 7]: 42.3% | remaining activity at 0.013 µM [2, 6]: 24% | remaining activity at 0.013 µM [2, 7]: 25.6% | remaining activity at 0.025 µM ([2]; dose 0.025 µM, wild-type C. elegans, mean of replicates, read-out: in vitro complex I activity relative to solvent control, Mean): 12.5% | remaining activity at 0.063 µM ([2]; dose 0.063 µM, wild-type C. elegans, mean of replicates, read-out: in vitro complex I activity relative to solvent control, Mean): 5.41% | remaining activity at 0.125 µM ([2]; dose 0.125 µM, wild-type C. elegans, mean of replicates, read-out: in vitro complex I activity relative to solvent control, Mean): 2.53% | remaining activity at 0.313 µM ([2]; dose 0.313 µM, wild-type C. elegans, mean of replicates, read-out: in vitro complex I activity relative to solvent control, Mean): 1.71% | remaining activity at 0.625 µM ([2]; dose 0.625 µM, wild-type C. elegans, mean of replicates, read-out: in vitro complex I activity relative to solvent control, Mean): 2.18% | remaining activity at 1.5 µM ([2]; dose 1.5 µM, wild-type C. elegans, mean of replicates, read-out: in vitro complex I activity relative to solvent control, Mean): 1.91% | remaining activity at 3 µM ([2]; dose 3 µM, wild-type C. elegans, mean of replicates, read-out: in vitro complex I activity relative to solvent control, Mean): 1.48% | remaining activity at 15 µM ([2]; dose 15 µM, wild-type C. elegans, mean of replicates, read-out: in vitro complex I activity relative to solvent control, Mean): 1.53% | remaining activity at 37.5 µM ([2]; dose 37.5 µM, wild-type C. elegans, mean of replicates, read-out: in vitro complex I activity relative to solvent control, Mean): 1.86% | remaining activity at 75 µM ([2]; dose 75 µM, wild-type C. elegans, mean of replicates, read-out: in vitro complex I activity relative to solvent control, Mean): 3.14% | IC50 [2, 8]: 4.2 nM

Cc1nc2ccccc2n1Cc1ccc(Cl)c(Cl)c1 [Compound 5655567]
IC50 [1, 3]: 1170 nM | activity at 0.0001 µM [1]: 91.2% | activity at 0.0005 µM [1]: 90.2% | activity at 0.001 µM [1]: 95.5% | activity at 0.0025 µM [1]: 94.9% | activity at 0.005 µM [1]: 95.5% | activity at 0.013 µM [1]: 85.5% | activity at 0.025 µM [1]: 82.4% | activity at 0.063 µM [1]: 79.8% | activity at 0.125 µM [1]: 78.8% | activity at 0.313 µM [1]: 62.7% | activity at 0.625 µM [1]: 60.2% | activity at 1.5 µM [1]: 41.5% | activity at 3 µM [1]: 23.2% | activity at 15 µM [1]: 1.19% | activity at 37.5 µM [1]: 0.14% | activity at 75 µM [1]: 0.62% | Log IC50 B. taurus complex I [1]: 0.07 µM | activity at 0.0001 µM [2]: 86.1% | activity at 0.0005 µM [2]: 92.1% | activity at 0.001 µM [2]: 93.5% | activity at 0.0025 µM [2]: 93.8% | activity at 0.005 µM [2]: 90.5% | activity at 0.013 µM [2]: 90.4% | activity at 0.025 µM [2]: 78.8% | activity at 0.063 µM [2]: 76.6% | activity at 0.125 µM [2]: 72.5% | activity at 0.313 µM [2]: 39.7% | activity at 0.625 µM [2]: 49.3% | activity at 1.5 µM [2]: 25.2% | activity at 3 µM [2]: 11.5% | activity at 15 µM [2]: 0.44% | activity at 37.5 µM [2]: 0.7% | activity at 75 µM [2]: 0.75% | IC50 [2, 4]: 470 nM | Log IC50 C. elegans complex I [2]: -0.33 µM | IC50 [2, 8]: 470 nM | IC50 [2, 5]: 470 nM

Clc1ccc(Cn2cnc3ccccc32)cc1Cl [Compound 5571325]
IC50 ([1]; B. taurus heart mitochondria): 11500 nM | activity at 0.0001 µM [1]: 97.2% | activity at 0.0005 µM [1]: 100% | activity at 0.001 µM [1]: 100% | activity at 0.0025 µM [1]: 99.4% | activity at 0.005 µM [1]: 97.3% | activity at 0.013 µM [1]: 88.2% | activity at 0.025 µM [1]: 96.9% | activity at 0.063 µM [1]: 95.3% | activity at 0.125 µM [1]: 96% | activity at 0.313 µM [1]: 92.8% | activity at 0.625 µM [1]: 96.3% | activity at 1.5 µM [1]: 89.7% | activity at 3 µM [1]: 83.9% | activity at 15 µM [1]: 36% | activity at 37.5 µM [1]: 5.23% | activity at 75 µM [1]: 1.54% | Log IC50 B. taurus complex I [1]: 1.06 µM | activity at 0.0001 µM [2]: 90.4% | activity at 0.0005 µM [2]: 92.7% | activity at 0.001 µM [2]: 95.2% | activity at 0.0025 µM [2]: 95.4% | activity at 0.005 µM [2]: 92.8% | activity at 0.013 µM [2]: 92.4% | activity at 0.025 µM [2]: 92.1% | activity at 0.063 µM [2]: 90.9% | activity at 0.125 µM [2]: 87.7% | activity at 0.313 µM [2]: 83.6% | activity at 0.625 µM [2]: 83% | activity at 1.5 µM [2]: 69.7% | activity at 3 µM [2]: 57.2% | activity at 15 µM [2]: 19% | activity at 37.5 µM [2]: 8.47% | activity at 75 µM [2]: 7.02% | IC50 [2, 4]: 4380 nM | Log IC50 C. elegans complex I [2]: 0.64 µM | IC50 [2, 8]: 4380 nM | IC50 ([2]; wild-type C. elegans mitochondria, read-out: C. elegans Complex I IC50): 4380 nM
